# Experimental data as given in patent publication EP1077981B1, “NOVEL CEPHALOSPORIN COMPOUNDS, PROCESSES FOR PREPARATION THEREOF AND ANTIMICROBIAL COMPOSITIONS CONTAINING THE SAME” (LG CHEMICAL LIMITED, priority 1998, dated 1999).
# Tests used:
# Test in all cases: MIC against standard strains (agar dilution)
# Type in all cases: cell-based
# [1] = system: Acinetobacter calcoaceticu 15473; details: Acinetobacter calcoaceticu 15473; Mueller-Hinton agar, 20 hours at 37°C; read-out: MIC
# Method: (§1) Test example 1: Measurement of Minimum Inhibitory Concentration (MIC)
# (§2) Specifically, test compounds were diluted by 2-fold dilution method and dispersed in Mueller-Hinton agar medium and then, 2µℓ of test strains were inoculated at a concentration of 10^7 cfu(colony forming unit)/mℓ on the medium and incubated for 20 hours at 37°C.
# [2] = system: Citrobacter diversus 2046E; details: Citrobacter koseri; Citrobacter diversus 2046E; Mueller-Hinton agar, 20 hours at 37°C; read-out: MIC
# Method: as §1, §2
# [3] = system: Citrobacter freundii 8090; details: Citrobacter freundii 8090; Mueller-Hinton agar, 20 hours at 37°C; read-out: MIC
# Method: as §1, §2
# E. coli = details: Escherichia coli, Mueller-Hinton agar, 10^7 cfu/mℓ, 20 hours at 37°C
# Method: as §1, §2
# [4] = system: Enterobacter cloacae IND+VE 1194E; details: Enterobacter cloacae IND+VE 1194E; Mueller-Hinton agar, 20 hours at 37°C; read-out: MIC
# Method: as §1, §2
# Enterobacter cloacae P99 = details: Enterobacter cloacae P99; Mueller-Hinton agar, 20 hours at 37°C; read-out: MIC
# Method: as §1, §2
# [5] = system: Enterococcus faecalis 29212; details: Enterococcus faecalis 29212; Mueller-Hinton agar, 20 hours at 37°C; read-out: MIC
# Method: as §1, §2
# Escherichia coli 10536 = details: Escherichia coli 10536; Mueller-Hinton agar, 20 hours at 37°C; read-out: MIC
# Method: as §1, §2
# Escherichia coli 3190Y = details: Escherichia coli 3190Y; Mueller-Hinton agar, 20 hours at 37°C; read-out: MIC
# Method: as §1, §2
# Escherichia coli 851E = details: Escherichia coli 851E; Mueller-Hinton agar, 20 hours at 37°C; read-out: MIC
# Method: as §1, §2
# [6] = system: Escherichia coli TEM1 1193E; details: TEM11193E, 20 h
# Method: as §1, §2
# [7] = system: Escherichia coli TEM3 3455E; details: TEM33455E, 20 h
# Method: as §1, §2
# [8] = system: Escherichia coli TEM9 2639E; details: TEM92639E; Escherichia coli TEM9 2639E; Mueller-Hinton agar, 20 hours at 37°C; read-out: MIC
# Method: as §1, §2
# H. influenzae = details: Haemophilus influenzae; H. influenzae; Mueller-Hinton agar, 10^7 cfu/mℓ, 20 hours at 37°C; read-out: MIC
# Method: as §1, §2
# [9] = system: Klebsiella aerogenes K1+ 1082E; details: Klebsiella aerogenes K1+ 1082E; Mueller-Hinton agar, 20 hours at 37°C; read-out: MIC
# Method: as §1, §2
# [10] = system: Klebsiella aerogenes SHV-1 1976E; details: SHV11976E; Klebsiella aerogenes SHV-1 1976E; Mueller-Hinton agar, 20 hours at 37°C; read-out: MIC
# Method: as §1, §2
# [11] = system: Klebsiella pneumoniae 2011E; details: Klebsiella pneumoniae 2011E; Mueller-Hinton agar, 20 hours at 37°C; read-out: MIC
# Method: as §1, §2
# [12] = system: Moraxella catarrhalis 25240; details: Moraxella catarrhalis 25240; Mueller-Hinton agar, 20 hours at 37°C; read-out: MIC
# Method: as §1, §2
# [13] = system: Moraxella catarrhalis C2431; details: Moraxella catarrhalis C2431; Mueller-Hinton agar, 20 hours at 37°C; read-out: MIC
# Method: as §1, §2
# [14] = system: Morganella morganii 1375E; details: Morganella morganii 1375E; Mueller-Hinton agar, 20 hours at 37°C; read-out: MIC
# Method: as §1, §2
# P. vulgaris = details: Proteus vulgaris, Mueller-Hinton agar, 10^7 cfu/mℓ, 20 hours at 37°C
# Method: as §1, §2
# Proteus vulgaris 6059 = details: Proteus vulgaris 6059; Mueller-Hinton agar, 20 hours at 37°C; read-out: MIC
# Method: as §1, §2
# [15] = system: Pseudomonas aeruginosa 1912E; details: Pseudomonas aeruginosa 1912E; Mueller-Hinton agar, 20 hours at 37°C; read-out: MIC
# Method: as §1, §2
# [16] = system: Pseudomonas aeruginosa 6065Y; details: Pseudomonas aeruginosa 6065Y; Mueller-Hinton agar, 20 hours at 37°C; read-out: MIC
# Method: as §1, §2
# S. aureus = details: Staphylococcus aureus, Mueller-Hinton agar, 10^7 cfu/mℓ, 20 hours at 37°C
# Method: as §1, §2
# S. pneumoniae = details: Streptococcus pneumoniae, Mueller-Hinton agar, 10^7 cfu/mℓ, 20 hours at 37°C
# Method: as §1, §2
# [17] = system: Salmonella typhimurium 14028; details: Salmonella enterica; Salmonella typhimurium 14028; Mueller-Hinton agar, 20 hours at 37°C; read-out: MIC
# Method: as §1, §2
# [18] = system: Serratia marcescens 1826E; details: Serratia marcescens 1826E; Mueller-Hinton agar, 20 hours at 37°C; read-out: MIC
# Method: as §1, §2
# [19] = system: Staphylococcus aureus 241; details: Staphylococcus aureus 241; Mueller-Hinton agar, 20 hours at 37°C; read-out: MIC
# Method: as §1, §2
# [20] = system: Staphylococcus aureus 6538p; details: Staphylococcus aureus 6538p; Mueller-Hinton agar, 20 hours at 37°C; read-out: MIC
# Method: as §1, §2
# Staphylococcus aureus 77 = details: Staphylococcus aureus 77; Mueller-Hinton agar, 20 hours at 37°C; read-out: MIC
# Method: as §1, §2
# [21] = system: Staphylococcus aureus giorgio; details: Staphylococcus aureus giorgio; Mueller-Hinton agar, 20 hours at 37°C; read-out: MIC
# Method: as §1, §2
# [22] = system: Staphylococcus epidermidi 887E; details: Staphylococcus epidermidi 887E; Mueller-Hinton agar, 20 hours at 37°C; read-out: MIC
# Method: as §1, §2
smiles,measurement,setting,value
"CC(C)(O/N=C(\C(=O)N[C@@H]1C(=O)N2C(C(=O)[O-])=C(C[n+]3ccccc3)CS[C@H]12)c1csc(N)n1)C(=O)O [Ceftazidime, reference compound]",MIC,[1],2 µg/mL
same,MIC,[2],0.25 µg/mL
same,MIC,[3],0.13 µg/mL
same,MIC,E. coli,0.031 µg/mL
same,MIC,[4],0.5 µg/mL
same,MIC,Enterobacter cloacae P99,32 µg/mL
same,MIC,[5],> 128 µg/mL
same,MIC,Escherichia coli 10536,0.063 µg/mL
same,MIC,Escherichia coli 3190Y,0.031 µg/mL
same,MIC,Escherichia coli 851E,0.063 µg/mL
same,MIC,[6],0.13 µg/mL
same,MIC,[7],8 µg/mL
same,MIC,[8],> 128 µg/mL
same,MIC,H. influenzae,0.063 µg/mL
same,MIC,[9],0.25 µg/mL
same,MIC,[10],0.25 µg/mL
same,MIC,[11],0.5 µg/mL
same,MIC,[12],0.016 µg/mL
same,MIC,[13],0.031 µg/mL
same,MIC,[14],0.063 µg/mL
same,MIC,P. vulgaris,0.031 µg/mL
same,MIC,Proteus vulgaris 6059,0.031 µg/mL
same,MIC,[15],1 µg/mL
same,MIC,[16],32 µg/mL
same,MIC,S. aureus,4 µg/mL
same,MIC,S. pneumoniae,8 µg/mL
same,MIC,[17],0.25 µg/mL
same,MIC,[18],0.25 µg/mL
same,MIC,[19],> 128 µg/mL
same,MIC,[20],16 µg/mL
same,MIC,Staphylococcus aureus 77,32 µg/mL
same,MIC,[21],4 µg/mL
same,MIC,[22],> 128 µg/mL
